According to patent US11279681B2, “3-alkyl bicyclic [4,5,0] hydroxamic acids as HDAC inhibitors” (Valo Health, Inc., priority 2015, dated 2022):

target: T1, HDAC6 (Homo sapiens, UniProt Q9UBN7); experiment: In vitro histone deacetylase assay: enzymatic HDAC6 electrophoretic mobility shift assay; assay type: biochemical; conditions: full length human recombinant HDAC6, 1 nM enzyme, 2 μM peptide substrate RHKK(Ac)-NH2, 25° C.; read-out: Inhibitory Concentration (IC50) Values for Representative Compounds against HDAC6, Activity Range
T1 sequence (Q9UBN7 1-1215): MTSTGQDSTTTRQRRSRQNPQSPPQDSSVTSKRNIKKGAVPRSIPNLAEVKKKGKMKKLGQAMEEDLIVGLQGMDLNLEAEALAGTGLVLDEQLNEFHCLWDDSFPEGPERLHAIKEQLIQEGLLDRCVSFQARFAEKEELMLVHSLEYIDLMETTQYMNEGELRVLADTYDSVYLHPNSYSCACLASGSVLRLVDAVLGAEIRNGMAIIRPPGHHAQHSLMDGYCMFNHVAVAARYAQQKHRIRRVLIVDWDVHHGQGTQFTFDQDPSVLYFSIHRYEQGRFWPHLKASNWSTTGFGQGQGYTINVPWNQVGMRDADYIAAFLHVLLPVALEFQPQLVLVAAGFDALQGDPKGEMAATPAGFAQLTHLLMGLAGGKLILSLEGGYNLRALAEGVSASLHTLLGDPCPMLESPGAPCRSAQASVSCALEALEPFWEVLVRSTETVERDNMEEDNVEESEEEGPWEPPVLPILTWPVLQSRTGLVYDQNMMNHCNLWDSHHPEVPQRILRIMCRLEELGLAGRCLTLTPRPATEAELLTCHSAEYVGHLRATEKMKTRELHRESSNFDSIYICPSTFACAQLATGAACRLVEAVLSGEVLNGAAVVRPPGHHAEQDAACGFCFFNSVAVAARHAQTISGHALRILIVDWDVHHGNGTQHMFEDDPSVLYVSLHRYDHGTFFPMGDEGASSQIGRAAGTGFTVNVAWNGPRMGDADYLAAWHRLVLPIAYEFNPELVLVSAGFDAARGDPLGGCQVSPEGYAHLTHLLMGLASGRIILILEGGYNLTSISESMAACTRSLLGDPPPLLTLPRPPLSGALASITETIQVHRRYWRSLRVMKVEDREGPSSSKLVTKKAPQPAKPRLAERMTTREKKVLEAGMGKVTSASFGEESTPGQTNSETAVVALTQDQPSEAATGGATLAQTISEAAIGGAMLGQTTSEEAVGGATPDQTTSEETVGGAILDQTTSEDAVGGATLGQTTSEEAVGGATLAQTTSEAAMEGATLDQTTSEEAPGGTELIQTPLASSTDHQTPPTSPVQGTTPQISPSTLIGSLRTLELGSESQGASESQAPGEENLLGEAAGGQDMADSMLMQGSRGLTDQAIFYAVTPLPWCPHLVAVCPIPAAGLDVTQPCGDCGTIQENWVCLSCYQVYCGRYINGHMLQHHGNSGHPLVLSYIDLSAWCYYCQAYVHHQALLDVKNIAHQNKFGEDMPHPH
Procedure: The enzymatic HDAC6 assay was performed using electrophoretic mobility shift assay. […] The enzymatic reactions were assembled in 384 well plates in a total volume of 25 μL in a reaction buffer composing: 100 mM HEPES, pH7.5, 25 mM KCl, 0.1% bovine serum albumin, 0.01% Triton X-100, 1% DMSO (from compounds) 2 μM of the fluorescently labeled peptide substrate and enzyme. The enzyme was added at a final concentration of 1 nM. The peptide substrate RHKK(Ac)-NH2 was used. The compounds were tested at 12 concentrations spaced by 3× dilution intervals. Negative control samples (0%-inhibition in the absence of inhibitor) and positive control samples (100%-inhibition) were assembled in replicates of four in each assay plate. The reactions were incubated at 25° C. and quenched by the addition of 45 μL of termination buffer (100 mM HEPES, pH 7.5, 0.01% Triton X-100, 0.05% SDS).
The terminated assay plates were analyzed on LabChip® 3000 microfluidic electrophoresis instrument (Perkin Elmer/Caliper Life Sciences). The fluorescence intensity of the electrophoretically separated de-acetylated product and substrate peptide was measured. Activity in each sample was determined as the product to sum ratio (PSR): P/(S+P), where P is the peak height of the product peptide and S is the peak height of the substrate peptide. Percent inhibition (Pinh) is determined using the following equation:
Pinh=(PSR0%−PSRinh)/(PSR0%−PSR100%)*100, where PSRinh is the product sum ratio in the presence of inhibitor, PSR0% is the average product sum ration in the absence of inhibitor and PSR100% is the average product sum ratio in 100%-inhibition control samples. The IC50 values of inhibitors were determined by fitting the %-inhibition curves with 4 parameter dose-response model using XLfit 4 software.

| IC50 [nM] | Compound |
| --- | --- |
| ≤ 100 | C[C@H]1COc2cc(C(=O)NO)ccc2CN1c1ccc(Cl)cc1 [(S)-4-(4-chlorophenyl)-N-hydroxy-3-methyl-2,3,4,5-tetrahydrobenzo[f][1,4]oxazepine-8-carboxamide] |
| 100 to 500 | COC[C@@H]1COc2cc(C(=O)NO)ccc2CN1c1ccccc1 [(R)-N-hydroxy-3-(methoxymethyl)-4-phenyl-2,3,4,5-tetrahydrobenzo[f][1,4]oxazepine-8-carboxamide] |
| 100 to 500 | O=C1CN(Cc2cccc(OC(F)(F)F)c2)Cc2cc(C(=O)NO)ccc2N1 |
| ≤ 100 | CC(C)c1ccc(CN2CC(=O)Nc3ccc(C(=O)NO)cc3C2)cc1 |
| ≤ 100 | O=C1CN(Cc2ccc(Cl)cc2)Cc2cc(C(=O)NO)ccc2N1 |
| 100 to 500 | COc1ccc(S(=O)(=O)N2Cc3ccc(C(=O)NO)cc3OC[C@@H]2C)cc1 |
| ≤ 100 | COC[C@H]1COc2cc(C(=O)NO)ccc2CN1Cc1ccc(OC)cc1 [(S)-N-hydroxy-4-(4-methoxybenzyl)-3-(methoxymethyl)-2,3,4,5-tetrahydrobenzo[f][1,4]oxazepine-8-carboxamide] |
| ≤ 100 | O=C1CN(Cc2ccc3ccccc3c2)Cc2cc(C(=O)NO)ccc2N1 |
| 100 to 500 | COCCn1c(CN2CCOc3cc(C(=O)NO)ccc3C2)nc2ccccc21 |
| 100 to 500 | O=C1CN(Cc2ccc(OC(F)(F)F)cc2)Cc2cc(C(=O)NO)ccc2N1 |
| 100 to 500 | COc1ccc(S(=O)(=O)N2Cc3ccc(C(=O)NO)cc3O[C@H](C)C2)cc1 |
| ≤ 100 | C[C@H]1COc2cc(C(=O)NO)ccc2CN1c1ccccc1Cl [(S)-4-(2-chlorophenyl)-N-hydroxy-3-methyl-2,3,4,5-tetrahydrobenzo[f][1,4]oxazepine-8-carboxamide] |
| 100 to 500 | O=C(NO)c1ccc2c(c1)OCC1(CC1)N(c1ccccc1)C2 [N-hydroxy-4-phenyl-4,5-dihydro-2H-spiro[benzo[f][1,4]oxazepine-3,1′-cyclopropane]-8-carboxamide] |
| > 500 | COc1ccc(CN2CCOc3cc(C(=O)NO)ccc3[C@H]2C)cc1 [(R)-N-hydroxy-4-(4-methoxybenzyl)-5-methyl-2,3,4,5-tetrahydrobenzo[f][1,4]oxazepine-8-carboxamide] |
| ≤ 100 | Cc1ccccc1N1Cc2ccc(C(=O)NO)cc2OC[C@@H]1C [(S)-N-hydroxy-3-methyl-4-(o-tolyl)-2,3,4,5-tetrahydrobenzo[f][1,4]oxazepine-8-carboxamide] |
| 100 to 500 | COc1ccc(CN2CCOc3cc(C(=O)NO)ccc3[C@@H]2C)cc1 [(S)-N-hydroxy-4-(4-methoxybenzyl)-5-methyl-2,3,4,5-tetrahydrobenzo[f][1,4]oxazepine-8-carboxamide] |
| 100 to 500 | O=C1CN(Cc2nc3ccccc3[nH]2)Cc2ccc(C(=O)NO)cc2N1 |
| 100 to 500 | O=C1CN(Cc2ccnc(N3CCOCC3)c2)Cc2cc(C(=O)NO)ccc2N1 |
| 100 to 500 | COc1ccc(S(=O)(=O)N2CCOc3ccc(C(=O)NO)cc3C2)cc1 |

More lines, now with the values behind:

| Compound | IC50 [nM] |
| --- | --- |
| C[C@@H]1COc2cc(C(=O)NO)ccc2CN1c1ccccc1 | 100 to 500 |
| CCN1Cc2ccc(C(=O)NO)cc2OC[C@@H]1C [(S)-4-ethyl-N-hydroxy-3-methyl-2,3,4,5-tetrahydrobenzo[f][1,4]oxazepine-8-carboxamide] | 100 to 500 |
| C[C@H]1COc2cc(C(=O)NO)ccc2CN1C(=O)NC1CCOCC1 [(S)-N8-hydroxy-3-methyl-N4-(tetrahydro-2H-pyran-4-yl)-2,3-dihydrobenzo[f][1,4]oxazepine-4,8(5H)-dicarboxamide] | ≤ 100 |
| C[C@H]1COc2cc(C(=O)NO)ccc2CN1c1ccccn1 [(S)-N-hydroxy-3-methyl-4-(pyridin-2-yl)-2,3,4,5-tetrahydrobenzo[f][1,4]oxazepine-8-carboxamide] | ≤ 100 |
| COC[C@H]1COc2cc(C(=O)NO)ccc2CN1C [(S)-N-hydroxy-3-(methoxymethyl)-4-methyl-2,3,4,5-tetrahydrobenzo[f][1,4]oxazepine-8-carboxamide] | ≤ 100 |
| C[C@H]1COc2cc(C(=O)NO)ccc2CN1C(=O)OC1CCCC1 [cyclopentyl(S)-8-(hydroxycarbamoyl)-3-methyl-2,3-dihydrobenzo[f][1,4]oxazepine-4(5H)-carboxylate] | ≤ 100 |
| C[C@H]1COc2cc(C(=O)NO)ccc2CN1CC1COC1 [(S)-N-hydroxy-3-methyl-4-(oxetan-3-ylmethyl)-2,3,4,5-tetrahydrobenzo[f][1,4]oxazepine-8-carboxamide] | ≤ 100 |
| C[C@H]1COc2cc(C(=O)NO)ccc2CN1C1CCCC1 [(S)-4-cyclopentyl-N-hydroxy-3-methyl-2,3,4,5-tetrahydrobenzo[f][1,4]oxazepine-8-carboxamide] | 100 to 500 |
| C[C@H]1COc2cc(C(=O)NO)ccc2CN1CC1CCCCC1 [(S)-4-(cyclohexylmethyl)-N-hydroxy-3-methyl-2,3,4,5-tetrahydrobenzo[f][1,4]oxazepine-8-carboxamide] | ≤ 100 |
| C[C@H]1COc2cc(C(=O)NO)ccc2CN1C1COC1 [(S)-N-hydroxy-3-methyl-4-(oxetan-3-yl)-2,3,4,5-tetrahydrobenzo[f][1,4]oxazepine-8-carboxamide] | > 500 |
| COC1CCN(C(=O)N2Cc3ccc(C(=O)NO)cc3OC[C@@H]2C)CC1 [(S)-N-hydroxy-4-(4-methoxypiperidine-1-carbonyl)-3-methyl-2,3,4,5-tetrahydrobenzo[f][1,4]oxazepine-8-carboxamide] | ≤ 100 |
| C[C@H]1COc2cc(C(=O)NO)ccc2CN1CC1CCCC1 [(S)-4-(cyclopentylmethyl)-N-hydroxy-3-methyl-2,3,4,5-tetrahydrobenzo[f][1,4]oxazepine-8-carboxamide] | ≤ 100 |
| COC(=O)N1Cc2ccc(C(=O)NO)cc2OC[C@@H]1C [methyl(S)-8-(hydroxycarbamoyl)-3-methyl-2,3-dihydrobenzo[f][1,4]oxazepine-4(5H)-carboxylate] | ≤ 100 |
| C[C@H]1COc2cc(C(=O)NO)ccc2CN1CCCN1CCOCC1 [(S)-N-hydroxy-3-methyl-4-(3-morpholinopropyl)-2,3,4,5-tetrahydrobenzo[f][1,4]oxazepine-8-carboxamide] | 100 to 500 |
| COCCS(=O)(=O)N1Cc2ccc(C(=O)NO)cc2OC[C@@H]1C [(S)-N-hydroxy-4-((2-methoxyethyl)sulfonyl)-3-methyl-2,3,4,5-tetrahydrobenzo[f][1,4]oxazepine-8-carboxamide] | 100 to 500 |
| COCCn1c(N2CCOc3cc(C(=O)NO)ccc3C2)nc2ccccc21 | ≤ 100 |
| CC1CCCCN1C(=O)N1CCOc2cc(C(=O)NO)ccc2C1 (centres unmarked) [N-hydroxy-4-(2-methylpiperidine-1-carbonyl)-2,3,4,5-tetrahydrobenzo[f][1,4]oxazepine-8-carboxamide] | ≤ 100 |
| C[C@H]1COc2cc(C(=O)NO)ccc2CN1S(C)(=O)=O [(S)-N-hydroxy-3-methyl-4-(methylsulfonyl)-2,3,4,5-tetrahydrobenzo[f][1,4]oxazepine-8-carboxamide] | ≤ 100 |
| C[C@H]1COc2cc(C(=O)NO)ccc2CN1C(=O)N1CCN(C)CC1 [(S)-N-hydroxy-3-methyl-4-(4-methylpiperazine-1-carbonyl)-2,3,4,5-tetrahydrobenzo[f][1,4]oxazepine-8-carboxamide] | 100 to 500 |
